Experimental data published in patent publication US9695155B2, “Herbicidal substituted pyrimidinyloxy benzene compounds” (E. I. DU PONT DE NEMOURS AND COMPANY, priority 2013, dated 2017).

Legend:
corn = test: Test A postemergence; type: in vivo, Zea mays
Method in brief: (§1)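 Injury scores run from 0, no effect, to 100, complete control, judged by eye against untreated plants roughly 10 days after treatment. Chemicals carried a surfactant in a non-phytotoxic solvent and went onto loam–sand soil preemergence or onto one- to two-leaf seedlings postemergence.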

barnyardgrass [1] = test: Test A preemergence; type: in vivo, Echinochloa crus-galli; details: for Barnyardgrass plant response rating: 500 g ai/ha
Method in brief: as §1

wheat = test: Test A preemergence; type: in vivo, Triticum aestivum; details: for Wheat plant response rating: 0 to 100 scale, 0 no effect, 100 complete control, approx. 10 days
Method in brief: as §1

chickweed = test: Test C postemergence; type: in vivo, Stellaria media; details: for Plant response rating, Chickweed / Chickweed plant response rating: scale 0 to 100 (0 no effect, 100 complete control)
Excerpt: Seeds of plant species selected from blackgrass (Alopecurus myosuroides), Italian ryegrass (Lolium multiflorum), wheat, winter (winter wheat, Triticum aestivum), galium (catchweed bedstraw, Galium aparine), corn (Zea mays), large (Lg) crabgrass (Digitaria sanguinalis), giant foxtail (Setaria faberii), johnsongrass (Sorghum halepense), lambsquarters (Chenopodium album), morningglory (Ipomoea coccinea), yellow nutsedge (Cyperus esculentus), pigweed (Amaranthus retroflexus), ragweed (common ragweed, Ambrosia elatior), soybean (Glycine max), barnyardgrass (Echinochloa crus-galli), oilseed rape (Brassica napus), waterhemp (common waterhemp, Amaranthus rudis), kochia (Kochia scoparia), wild oat (Avena fatua), surinam grass (Brachiaria decumbens), foxtail, green (green foxtail, Setaria viridis), goosegrass (Eleusine indica), bromegrass, downy (downy bromegrass, Bromus tectorum), nightshade (eastern black nightshade, Solanum ptycanthum), cocklebur (common cocklebur, Xanthium strumarium), cupgrass, woolly (woolly cupgrass, Eriochloa villosa), bermudagrass (Cynodon dactylon), sunflower, (common oilseed sunflower, Helianthus annuus), Russian thistle (Salsola kali), and velvetleaf (Abutilon theophrasti) were planted into a blend of loam soil and sand and treated preemergence with test chemicals formulated in a non-phytotoxic solvent mixture which included a surfactant.
At the same time, plants selected from these crop and weed species and also barley, winter (winter barley, Hordeum vulgare), windgrass (Apera spica-venti), chickweed (common chickweed, Stellaria media), deadnettle (henbit deadnettle, Lamium amplexicaule), and canarygrass (littleseed canarygrass, Phalaris minor) were planted in pots containing Redi-Earth® planting medium (Scotts Company, 14111 Scottslawn Road, Marysville, Ohio 43041) comprising spaghnum peat moss, vermiculite, wetting agent and starter nutrients and treated with postemergence applications of test chemicals formulated in the same manner. Plants ranged in height from 2 to 18 cm (1- to 4-leaf stage) for postemergence treatments. Treated plants and controls were maintained in a greenhouse for 13 to 15 days, after which time all species were compared to controls and visually evaluated. Plant response ratings, summarized in Table C, are based on a scale of 0 to 100 where 0 is no effect and 100 is complete control. A dash (-) response means no test result.

morningglory = test: Test A preemergence; type: in vivo, Ipomoea spp.; details: for Morningglory plant response rating: 0 to 100 scale, 0 no effect, 100 complete control, approx. 10 days
Method in brief: as §1

barnyardgrass [2] = test: Test B flooded paddy test; type: in vivo, Echinochloa crus-galli; details: Flood, 250 g ai/ha; 0 to 100 scale where 0 is no effect and 100 is complete control
Method in brief: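 Visual ratings on a 0 to 100 scale, where 100 means complete control, compared treated plants with controls after 13 to 15 days in a greenhouse. Treatment went into paddy water 3 cm deep over the soil, applied to plants at the 2-leaf stage.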

velvetleaf = test: Test A preemergence; type: in vivo, Abutilon theophrasti; details: for Velvetleaf plant response rating: 0 to 100 scale, 0 no effect, 100 complete control, approx. 10 days
Method in brief: as §1

wild oat = test: Test C postemergence; type: in vivo, Avena fatua
Method in brief: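 Greenhouse herbicide screen. Pre: seeded loam/sand, sprayed at planting. Post: 1–4 leaf plants (2–18 cm) in peat-based mix. Formulation: solvent mixture + surfactant, non-phytotoxic. Readout: visual % control vs untreated, 13–15 d; dash = not tested.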

[3] = 125 g ai/ha, 0 to 100 scale where 0 is no effect and 100 is complete control
[4] = Postemergence, 31 g ai/ha, 13 to 15 days
[5] = Postemergence, 31 g ai/ha, scale 0 to 100 (0 no effect, 100 complete control), 13 to 15 days
[6] = Postemergence, 62 g ai/ha, scale 0 to 100 (0 no effect, 100 complete control)
[7] = 1000 g ai/ha, 0 to 100 scale, 0 no effect, 100 complete control
[8] = 8 g ai/ha, postemergence, 0 is no effect, 100 is complete control
[9] = 16 g ai/ha, postemergence, 0 is no effect, 100 is complete control

Row | SMILES | Plant response rating (0 to 100), Chickweed (chickweed; 125 g ai/ha, postemergence) | Plant response rating (0 to 100), Chickweed (chickweed; 250 g ai/ha, postemergence) | Plant response rating, Chickweed (chickweed; [4]) | Plant response rating, Chickweed (chickweed; Postemergence, 62 g ai/ha) | Plant response rating, Barnyardgrass (barnyardgrass [2]) | Plant response rating (0 to 100), Oat, Wild (wild oat; 125 g ai/ha, postemergence) | Plant response rating (0 to 100), Oat, Wild (wild oat; 250 g ai/ha, postemergence) | Plant response rating, Oat, Wild (wild oat; [5]) | Plant response rating, Oat, Wild (wild oat; [6]) | Plant response rating, Corn (corn; [7]) | Plant response rating, Barnyardgrass (barnyardgrass [1]; [7]) | Wheat plant response rating (wheat; 1000 g ai/ha) | Morningglory plant response rating (morningglory; 1000 g ai/ha) | Velvetleaf plant response rating (velvetleaf; 1000 g ai/ha) | also measured
1 | N#Cc1cccc(Oc2ncc(F)cn2)c1-n1cc(Br)cn1 [Compound 62] | 75 | 90 | 50 | 50 | 0 | 30 | 35 | 0 | 0 |  |  |  |  |  | Plant response rating, Corn (corn; [3]): 70; Plant response rating, Corn (corn; 500 g ai/ha, 0 to 100 scale, 0 no effect, 100 complete control): 90; Plant response rating, Barnyardgrass (barnyardgrass [1]; [3]): 60; Barnyardgrass plant response rating (barnyardgrass [1]; 0 to 100 scale, 0 no effect, 100 complete control, approx. 10 days): 100; Plant response rating, Wheat (wheat; [3]): 0; Wheat plant response rating (wheat; 500 g ai/ha): 80; Plant response rating, Morningglory (morningglory; [3]): 0; Morningglory plant response rating (morningglory; 500 g ai/ha): 90; Plant response rating, Velvetleaf (velvetleaf; [3]): 50; Velvetleaf plant response rating (velvetleaf; 500 g ai/ha): 100
2 | N#Cc1cccc(Oc2ncc(Cl)cn2)c1-n1cc(-n2ccc(C(F)(F)F)n2)cn1 [Compound 284] |  | 100 |  |  | 0 |  | 5 |  |  |  |  |  |  |  | Plant response rating, Corn (corn; 125 g ai/ha, 0 to 100 scale, 0 no effect, 100 complete control): 20; Plant response rating, Corn (corn; 500 g ai/ha, 0 to 100 scale where 0 is no effect and 100 is complete control): 40; Barnyardgrass plant response rating (0 to 100 scale, 0 is no effect, 100 is complete control) (barnyardgrass [1]; 125 g ai/ha): 60; Barnyardgrass plant response rating (barnyardgrass [1]; 0 to 100 scale where 0 is no effect and 100 is complete control): 90; Chickweed plant response rating (chickweed; 31 g ai/ha, postemergence, visual rating, 13 to 15 days): 65; Plant response rating, Chickweed (chickweed; 125 g ai/ha, postemergence, visual rating): 100; Plant response rating, Chickweed (chickweed; Postemergence, 62 g ai/ha, 13 to 15 days): 100; Oat, Wild plant response rating (wild oat; 31 g ai/ha, postemergence, visual rating, scale 0 to 100 (0 no effect, 100 complete control), 13 to 15 days): 5; Plant response rating, Oat, Wild (wild oat; 125 g ai/ha, postemergence, visual rating, scale 0 to 100 (0 no effect, 100 complete control)): 5; Plant response rating, Oat, Wild (wild oat; Postemergence, 62 g ai/ha, scale 0 to 100 (0 no effect, 100 complete control), 13 to 15 days): 5
3 | Clc1cnc(Oc2cccc(Br)c2-n2cc(Br)cn2)nc1 [Compound 65] | 98 |  | 50 | 70 | 0 | 5 |  | 0 | 5 | 70 | 100 | 30 | 100 | 100 | Chickweed plant response rating (chickweed; 16 g ai/ha, postemergence, visual rating, 13 to 15 days): 60
4 | CC(=NO)c1cn(-c2c(Br)cccc2Oc2ncc(Cl)cn2)nn1 [Compound 115] |  |  |  |  | 0 |  |  |  |  | 90 | 100 | 40 | 50 | 100 | Plant response rating (0 to 100), Chickweed (chickweed; 4 g ai/ha, postemergence, 0 is no effect, 100 is complete control): 0; Plant response rating (0 to 100), Chickweed (chickweed; [8]): 5; Plant response rating (0 to 100), Chickweed (chickweed; [9]): 5; Plant response rating (0 to 100), Oat, Wild (wild oat; [8]): 0; Plant response rating (0 to 100), Oat, Wild (wild oat; [9]): 0
